# US20220080016A1, “Antioxidant, Antibacterial Or Anti-Inflammatory Pharmaceutical Composition Containing Scutellaria Baicalensis Extract And Magnolia Officinalis Extract As Active Ingredients” (Genogen Co.,Ltd., priority 2020, published 2022)
# Assay: DPPH radical scavenging assay
# Assay type: biochemical
# Details: DPPH radical scavenging activity in 30 minutes
# Method: FIGS. 4A through 4D show lipid peroxidation and DPPH (1,1-diphenyl-2-picrylhydrazyl) analysis result which were obtained by measuring the antioxidant activity of Comparative Example 1 (SBR), Comparative Example 2 (MOB) and Present Example 1 (GenoTX-407). […] As shown in the upper left graph of FIG. 4, after exposure to FeCl3 (50 μM), TBARS (thiobarbituric acid reactive substances) level increased (74%).
smiles,measurement,value
O=C1O[C@H]([C@@H](O)CO)C(O)=C1O [ascorbic acid],"EC50, DPPH",14.38 µg/mL
